Reference: US5484778A, “Phthalocyanine photosensitizers for photodynamic therapy and methods for their use” (priority 1993, dated 1996)
Entries after “also recorded” stand apart in the source; their conditions may differ.

Legend:
[1] = test system: Chinese hamster V79-379 cells; assay: Clonogenic cell survival / photocytotoxicity in V79 cells (Table 1, FIG. 1, FIG. 2); assay type: cell-based; conditions: for CF10 (AlPcCl)/CF10 (Pc) / F10 (AlPcCl)/F10 (Pc): 1.0 μM, 18 h; for CF10 (AlPcCl)/CF10 (Pc): CF10 = intracellular concentration x fluence reducing survival to 10%; for F10 (AlPcCl)/F10 (Pc): F10 = fluence reducing survival to 10%
Protocol: FIG. 1 is a graph illustrating the photodynamic efficacy of the various compositions of the present invention in comparison to AlPcCl. The phthalocyanine composition compounds of the present invention were tested for their photodynamic efficiency against Chinese hamster fibroblast V79 cells by colony formation. Monolayer cultures were treated with the indicated phthalocyanine composition for 18 hours, irradiated with various fluences of red light, and immediately trypsinized and replated at appropriate aliquots in triplicate. Colonies of at least 50 cells were counted after 7-10 days. The plating efficiency of the untreated cells was approximately 90%.
In this regard, in FIG. 2 the data of FIG. 1 were replotted as a function of the product of the amount of cell-associated phthalocyanine and the light fluence.
(§1) Chinese hamster V79-379 lung fibroblasts were grown in monolayer culture in McCoy's 5A medium (Gibco Laboratories, Grand Island, N.Y.) augmented with 10% calf serum and buffered with 20 mM HEPES (pH 7.4).
(§2) The cells were treated with 1 μM AlPcCl (from Eastman Kodak, Rochester, N.Y.) or with phthalocyanine compositions I-VI (0.5-1.0 μM final concentration in the medium) for 18 hours by adding the appropriate volume of a 1.0 mM stock solution in dimethylformamide (DMF) to the culture medium. The growth medium was replaced with 4 ml Hank's balanced salt solution (HBSS), and the cells were irradiated. The light source was a 500 W tungsten-halogen lamp located approximately 29 inches below the surface of a glass exposure tray. The visible light administered to the cells was filtered to allow passage of only that portion of the visible spectrum above 600 nm (Lee Primary red filter No. 106, Vincent Lighting, Cleveland, Ohio). The fluence rate was approximately 0.074 kJ/m^2 /s at the level of the cell monolayer.
Cells were irradiated at a density of approximately 2×10^6 per 25 cm^2 flask. Immediately after irradiation, the cell monolayer was treated with trypsin, and appropriate aliquots were plated in triplicate to give 100 to 200 colonies in each 10-cm Petri dish. Cell survival was determined by the ability of the cells to form colonies containing at least 50 cells. The response of cells treated with 1 μM AlPcCl and light was compared in each experiment.
Photocytotoxicity of the phthalocyanines compounds I to VI was also assessed by clonogenic assay (Table 1, FIG. 1). In all experiments, 1 μM AlPcCl was included for comparison purposes. From the survival curves (FIG. 1), the fluence reducing the cell survival to 10% (F10) was obtained. The ratio of the F10 for AlPcCl and the F10 for the test compound is recorded in Table 1.
In order to take differences in cellular uptake into consideration in the assessment of the relative efficiency of these phthalocyanines as photosensitizers of V79 cells, the survival data were replotted against the product of intracellular phthalocyanine concentration and light fluence (FIG. 2). From these curves, the product of intracellular concentration and light fluence reducing survival to 10% (CF10) was obtained, and comparisons of the values for AlPcCl and the test compounds are recorded in Table 1.

[2] = test system: Chinese hamster V79-379 cells; assay: Growth delay of V79 cultures after red light (Table 1); assay type: cell-based; conditions: for Growth Delay, efficiency relative to 1 μM AlPcCl: 18 h, 12 kJ/m^2 red light
Protocol: as §1, §2
At the time of light exposure, there were approximately 1.5×10^5 cells per 25 cm^2 flask. Following irradiation, the HBSS was replaced by 10 ml of fresh complete growth medium, and the cultures were returned to the 37° C. incubator. At various times before and after irradiation, duplicate cultures were trypsinized and counted. Controls included untreated cells and cells treated with light alone or drug alone. In addition, in each experiment, the drug to be tested was compared to a standard treatment, i.e. 1 μM AlPcCl for 18 hours followed by 12 kJ/m^2 light.
The inhibition of V79 culture growth was measured during a three day period following red light irradiation (12 kJ/m^2) of phthalocyanine-pretreated cells. With each of the active compounds, as well as with AlPcCl, there was an initial decrease in cell density, as dead cells became detached from the monolayer. Thereafter, the cell number per flask increased, as living cells grew and divided. The time for the cell density to recover to the level at the time of light exposure was considered the growth delay. […] The ratio of the growth delay for the test photosensitizer and the growth delay for AlPcCl measured in the same experiment is recorded in Table 1.

[3] = test system: Chinese hamster V79-379 cells; assay: Uptake of phthalocyanines by V79 cells relative to AlPcCl (Table 1); assay type: cell-based
Protocol: as §1
Total uptake was determined by scraping the phthalocyanine-treated monolayer, collecting the cells on a glass-fiber filter, and extracting the phthalocyanine in ethanol, as previously described by Ramakrishnan, et al., 1989. (Ramakrishnan, N., M. E. Clay, M. F. Horng, A. R. Antunez, & H. H. Evans, "DNA Lesions and DNA Degradation in Mouse Lymphoma L5178Y Cells After Photodynamic Treatment Sensitized by Chloroaluminum Phthalocyanine",Photochem. Photobiol, in press, 1989). The amount of drug was determined by absorption at 674 nm and expressed relative to the number of cells, as measured in a Coulter cell counter on an aliquot of the cell population. Controls included cells not treated with drug, medium alone, and drug-containing medium without cells. The results of the total uptake of the various compositions of the present invention in comparison to AlPcCl are set forth below in Table 1.
as §2
All of the compounds have been examined for the extent of cellular uptake after exposure of V79 cells to 1 μM or less in complete medium, and the data of Table 1 are presented relative to the uptake from 1 μM AlPcCl, which was 0.723±0.172 nmole/10^7 cells (mean ±S. D., 25 determinations). […] In particular, when the concentration of Compound IV was 1 μM in the medium, the uptake into the cells was sufficiently high that some of the uptake and phototoxicity studies were repeated at 0.5 μM.

RIF-1 tumors = assay: PDT of RIF-1 implanted tumors (Table 7); assay type: in vivo, C3H/HeN mice; conditions: for effect on tumor volume / growth (in words): 1 mg/kg
Protocol: The relative effectiveness at reducing tumor volume of selected phthalocyanine compounds at a given dosage was compared in vivo. RIF-1, i.e., radiation-induced fibrosarcoma, tumors were implanted into the backs of C3H/HeN mice. One tumor was implanted per mouse. Each of the phthalocyanine compounds listed in Table 7 was sonicated and vortexed in corn oil to produce a suspension. When the tumors reached […] in diameter and 2-3 mm in thickness, each mouse received 1 mg/kg in 0.1 ml of the corn oil, of the phthalocyanine suspension. For comparison, select mice received a conventional photosensitizer; either 5 mg/kg of chloroaluminum phthalocyanine tetrasulfonate, herein also referred to as "AlPcTS" in phosphate buffered saline or 5 mg/kg of Photofrin®-II in 5% dextrose. Twenty-four hours after the photosensitizers were administered, the tumors were irradiated with visible radiation delivered by an argon-pumped dye laser. The mice that received a phthalocyanine photosensitizer received light having a wavelength of 675 nm and the mice that received the Photofrin® II photosensitizer received light having a wavelength of 630 nm. Each tumor received 135 J/cm^2 of radiation. Tumor size was measured every day using calipers. The initial tumor volume was 50±10 mm^3. Tumor volume was calculated according to the hemiellipsoid model by the formula: [formula] Where l is length Where W is width

V79 cells [4] = test system: V79 cells
Protocol: V79 cells Chinese hamster lung fibroblasts were cultured using the cell culture methods described above. […] When the filters were dry, the phthalocyanines were extracted into ethanol and the absorption determined at the peak wavelength, usually 668 nm.

L5178Y-R (LY-R) cells = assay: Clonogenic survival of PDT-treated L5178Y-R cells (Tables 4 and 5, FIG. 3); assay type: cell-based, mouse; conditions: 0.5 μM
Protocol: (§3) Mouse lymphoma L5178y-R (hereinafter also referred to as "LY-R") cells were grown in suspension culture as described in Ramakrishnan N., Oleinick, N. L. Clay, M. E., Horng, M. F., Antunez, A. R., and Evans H. H., DNA lesions and DNA degradation in mouse lymphoma L5178Y cells after photodynamic treatment sensitized by chloroaluminum phthalocyanine. Photochem. Photobiol. 50, 373-378, 1989 and Agarwal, M. L., Clay, M. E., Harvey, E. J., Evans, H. H., Antunez, A. R., and Oleinick, N. L. Photodynamic therapy induces rapid cell death by apoptosis in L5178Y mouse lymphoma cells. Cancer Res., 51, 5993-5996, 1991.
(§4) The cells were used while in exponential growth. Stock solutions of either 0.5 or 1 mM of PcIV, PcXII, PcX, PcXVIII were prepared in dimethylformamide unless otherwise indicated and added to the 10 mL medium at a rate of 1 μL per mL. After allowing 18 hours for uptake of the phthalocyanine into the cells, the flasks containing the cultures were placed on a glass exposure tray above a 500-W tungsten-halogen lamp. The exposure tray was fitted with a 600-nm high-pass filter. Flasks were exposed to various fluences of red light (up to 30 kJ/m^2) at a fluence rate of approximately 74 W/m^2). After irradiation, the cells were collected by centrifugation.
(§5) For measurement of clonogenic cell survival, aliquots were plated in medium containing soft agar as described in Ramakrishnan N., Oleinick, N. L. Clay, M. E., Horng, M. F., Antunez, A. R., and Evans H. H., DNA lesions and DNA degradation in mouse lymphoma L5178Y cells after photodynamic treatment sensitized by chloroaluminum phthalocyanine. Photochem. Photobiol. 50, 373-378, 1989. The aliquots were plated in sufficient numbers to produce 50-200 colonies. The dishes were kept in an incubator at 37° C. in an atmosphere of 5% CO2 and 95% air for 10-14 days to allow viable cells to form colonies. Colonies were counted by eye. Controls treated with the phthalocyanine alone had plating efficiencies of ~90%. The plating efficiencies of the treated cells are normalized to the plating efficiencies of control cells in each experiment. For measurement of the induction of apoptosis, DNA was isolated from the treated and control cells 2 hours after photodynamic therapy, subjected to electrophoresis on 1.5% agarose, stained with ethidium bromide, and visualized by UV transillumination, as described in Agarwal et. al. The results are shown in Tables 4, 5 and 6 and in FIG. 3.
In Table 4 each phthalocyanine was present at 0.5 μM, and the normalized plating efficiencies are presented as mean and standard deviation at each fluence tested. […] This relative activity of these four phthalocyanines is the same as obtained from screening in V79 cells.
PcXII when present in the culture medium at 0.5 μM requires less light, that is the lowest fluence, to kill either 50% […] of the cells. PcIV is about 80% as active as PcXII, PcX is 44% as active as PcXII and PcXVIII is 22% as active as PcXII.

V79 cells [5] = assay: Clonogenicity, killing of V79 cells using photodynamic therapy (Table 3); assay type: cell-based, Chinese hamster
Protocol: Using the cell culture methods described above, V79 cells Chinese hamster lung fibroblasts were treated with either 0.5 or 1.0 μM of the phthalocyanines listed in Table 3. About 18 hours thereafter, the cells were irradiated with increasing doses of 675 nm broad band red light from a 500 W tungsten-halogen lamp fitted with a 600 nm high pass filter, to determine the light dosage that would kill 90% of the phthalocyanine treated cells. Where 90% of the cells were not killed, the maximum percent of cells killed were determined, (expressed as % survival) and the related light dosage recorded.

L5178Y cells = assay: Induction of apoptosis (DNA fragmentation) in L5178Y-R cells (Table 6); assay type: cell-based, mouse; conditions: 0.4 μM
Protocol: as §3, §4, §5
Cells were treated with various concentrations of the compounds listed in the table and various light fluences. DNA gels were prepared and examined for the characteristic "ladder" pattern of DNA fragments. For each Pc, the minimum total PDT dose tested (calculated as the product of the minimum phthalocyanine concentration and the minimum fluence) which produced visible DNA fragments is recorded. […] PcXVIII was also added at 0.5 and 1.0 μM.

uptake from 1 μM AlPcCl [3] [nmole/10^7 cells]	SMILES	CF10 (AlPcCl)/CF10 (Pc) [1]	F10 (AlPcCl)/F10 (Pc) [1]	growth delay ([2]; 1 μM for 18 hours and 12 kJ/m^2 light)	Growth Delay, efficiency relative to 1 μM AlPcCl [2]	Doubling Time of Initial Tumor Volume after PDT (RIF-1 tumors; 1 mg/kg in corn oil, 675 nm, 135 J/cm^2) [days]	effect on tumor volume / growth (in words) (RIF-1 tumors; listed as Pc XII)	effect on tumor volume / growth (in words) (RIF-1 tumors; listed as PcXII)	Uptake (from Table 2) (V79 cells [4]) [n Moles/10^6 cells/μM]	Uptake into V79 cells, composite value (V79 cells [4]) [n Moles/10^6 cells/μM]	uptake by V79 cells (in words) (V79 cells [4])	LD 90 (L5178Y-R (LY-R) cells; fluence reducing survival to 10%) [kJ/m^2]	LD50 (L5178Y-R (LY-R) cells; fluence reducing survival to 50%) [kJ/m^2]	photosensitizer activity in LY-R cells (in words) (L5178Y-R (LY-R) cells; listed as PcXII)	LD 90 (V79 cells [5]; 0.5 μM, 18 h, light dose killing 90% of cells) [kJ/m^2]	photosensitizing activity, killing V79 cells (in words) (V79 cells [5]; discussion of Table 3)	Minimum Demonstrated Condition to induce apoptosis: C × F (L5178Y cells) [μm × kJ/m^2]	Minimum Demonstrated Condition to induce apoptosis: Fluence (L5178Y cells) [kJ/m^2]	photosensitizing efficiency / photocytotoxicity (in words) [1]	inhibition of V79 culture growth (in words) ([2]; red light 12 kJ/m^2, three day period)
0.723±0.172	[Cl][Al]1[n]2c3c4ccccc4c2N=C2N=C(N=c4c5ccccc5c([n]41)=NC1=NC(=N3)c3ccccc31)c1ccccc12 [AlPcCl, chloroaluminum phthalocyanine, reference compound]	1.0	1.0	approximately 24 hours	1.0	–	–	–	–	–	–	–	–	–	–	–	–	–	–	–
–	CN(C)CCC[Si](C)(C)O[Si]1(O[Si](C)(C)CCCN(C)C)n2c3c4ccccc4c2N=C2N=C(N=c4c5ccccc5c(n41)=NC1=NC(=N3)c3ccccc31)c1ccccc12 [Compound XII, SiPc[OSi(CH3)2 (CH2)3 N(CH3)2]2]	–	–	–	–	20	significantly impair the growth of the tumors	particularly effective in reducing tumor volume	1.6	1.6	taken up particulary well	1.70	1.11	active photosensitizers; also recorded: most active compound of the phthalocyanines shown in Table 5	3.3	most active at killing V79 cells	1.2	3.0	–	–
–	C[N+](C)(C)CCC[Si](C)(C)[O][Al-2]123[n]4c5c6ccccc6c4N=c4c6ccccc6c([n]41)=NC1=[N+]2C(=NC2=[N+]3C(=N5)c3ccccc32)c2ccccc21.I [Compound II, AlPcOSi(CH3)2 (CH2)3 N(CH3)3^+ I^-]	0.72	0.99	–	3.4	–	–	–	–	–	–	–	–	–	–	–	–	–	nearly as efficient photosensitizers as AlPcCl	substantial inhibition
